This note sets out measurements from patent publication US20240018161A1, “MODULATORS OF CYSTIC FIBROSIS TRANSMEMBRANE CONDUCTANCE REGULATOR” (VERTEX PHARMACEUTICALS INCORPORATED, priority 2020, published 2024).

pEC50: −log10 of the molar value.

Broadly, the pEC50 is −log10 of the EC50, conventionally taken in molar units.

This experiment has as its target CFTR-mediated chloride transport in human intestinal epithelial enteroid cells (Homo sapiens, UniProt P13569). Nature of the experiment: Membrane potential dye, Enteroid Assay A. Format: cell-based. The settings on record: Enteroid Assay A; for pEC50: read-out: Ent. A EC50. As for the experimental part:
Base medium (ADF+++) consisted of Advanced DMEM/Ham's F12, 2 mM Glutamax, 10 mM HEPES, […] penicillin/streptomycin.
Bath 1 Buffer consisted of 1 mM MgCl2, 160 mM NaCl, 4.5 mM KCl, 10 mM HEPES, 10 mM Glucose, 2 mM CaCl2.
Chloride Free Buffer consisted of 1 mM Magnesium Gluconate, 2 mM Calcium Gluconate, 4.5 mM Potassium Gluconate, 160 mM Sodium Gluconate, 10 mM HEPES, 10 mM Glucose.
Bath1 Dye Solution consisted of Bath 1 Buffer, 0.04% Pluronic F127, 20 μM Methyl Oxonol, 30 μM CaCCinh-A01, 30 μM Chicago Sky Blue.
Chloride Free Dye Solution consisted of Chloride Free Buffer, 0.04% Pluronic F127, 20 μM Methyl Oxonol, 30 μM CaCCinh-A01, 30 μM Chicago Sky Blue.
3. Enteroid Cell Harvesting and Seeding
Cells were recovered in cell recovery solution, collected by centrifugation at 650 rpm for 5 min at 4° C., resuspended in TryPLE and incubated for 5 min at 37° C. Cells were then collected by centrifugation at 650 rpm for 5 min at 4° C. and resuspended in IEMM containing 10 μM ROCK inhibitor (RI).
4. Membrane Potential Dye, Enteroid Assay A
Briefly, cells were washed 5 times in Bath 1 Buffer. Bath 1 Dye Solution was added, and the cells were incubated for 25 min at room temperature. Following dye incubation, cells were washed 3 times in Chloride Free Dye Solution. Chloride transport was initiated by addition of Chloride Free Dye Stimulation Solution and the fluorescence signal was read for 15 min. […] Chloride transport was then expressed as a percentage of the chloride transport following treatment with 3 μM N-[(6-amino-2-pyridyl)sulfonyl]-6-(3-fluoro-5-isobutoxy-phenyl)-2-[(4S)-2,2,4-trimethylpyrrolidin-1-yl]pyridine-3-carboxamide, 3 μM (R)-1-(2,2-difluorobenzo[d][1,3]dioxol-5-yl)-N-(1-(2,3-dihydroxypropyl)-6-fluoro-2-(1-hydroxy-2-methylpropan-2-yl)-1H-indol-5-yl)cyclopropanecarboxamide and 300 nM acute N-[2,4-bis(1,1-dimethylethyl)-5-hydroxyphenyl]-1,4-dihydro-4-oxoquinoline-3-carboxamide triple combination control (% Activity).

CFTR-mediated chloride transport in human intestinal epithelial enteroid cells, sequence (P13569 with tags, fused parts or gaps DEL508-508): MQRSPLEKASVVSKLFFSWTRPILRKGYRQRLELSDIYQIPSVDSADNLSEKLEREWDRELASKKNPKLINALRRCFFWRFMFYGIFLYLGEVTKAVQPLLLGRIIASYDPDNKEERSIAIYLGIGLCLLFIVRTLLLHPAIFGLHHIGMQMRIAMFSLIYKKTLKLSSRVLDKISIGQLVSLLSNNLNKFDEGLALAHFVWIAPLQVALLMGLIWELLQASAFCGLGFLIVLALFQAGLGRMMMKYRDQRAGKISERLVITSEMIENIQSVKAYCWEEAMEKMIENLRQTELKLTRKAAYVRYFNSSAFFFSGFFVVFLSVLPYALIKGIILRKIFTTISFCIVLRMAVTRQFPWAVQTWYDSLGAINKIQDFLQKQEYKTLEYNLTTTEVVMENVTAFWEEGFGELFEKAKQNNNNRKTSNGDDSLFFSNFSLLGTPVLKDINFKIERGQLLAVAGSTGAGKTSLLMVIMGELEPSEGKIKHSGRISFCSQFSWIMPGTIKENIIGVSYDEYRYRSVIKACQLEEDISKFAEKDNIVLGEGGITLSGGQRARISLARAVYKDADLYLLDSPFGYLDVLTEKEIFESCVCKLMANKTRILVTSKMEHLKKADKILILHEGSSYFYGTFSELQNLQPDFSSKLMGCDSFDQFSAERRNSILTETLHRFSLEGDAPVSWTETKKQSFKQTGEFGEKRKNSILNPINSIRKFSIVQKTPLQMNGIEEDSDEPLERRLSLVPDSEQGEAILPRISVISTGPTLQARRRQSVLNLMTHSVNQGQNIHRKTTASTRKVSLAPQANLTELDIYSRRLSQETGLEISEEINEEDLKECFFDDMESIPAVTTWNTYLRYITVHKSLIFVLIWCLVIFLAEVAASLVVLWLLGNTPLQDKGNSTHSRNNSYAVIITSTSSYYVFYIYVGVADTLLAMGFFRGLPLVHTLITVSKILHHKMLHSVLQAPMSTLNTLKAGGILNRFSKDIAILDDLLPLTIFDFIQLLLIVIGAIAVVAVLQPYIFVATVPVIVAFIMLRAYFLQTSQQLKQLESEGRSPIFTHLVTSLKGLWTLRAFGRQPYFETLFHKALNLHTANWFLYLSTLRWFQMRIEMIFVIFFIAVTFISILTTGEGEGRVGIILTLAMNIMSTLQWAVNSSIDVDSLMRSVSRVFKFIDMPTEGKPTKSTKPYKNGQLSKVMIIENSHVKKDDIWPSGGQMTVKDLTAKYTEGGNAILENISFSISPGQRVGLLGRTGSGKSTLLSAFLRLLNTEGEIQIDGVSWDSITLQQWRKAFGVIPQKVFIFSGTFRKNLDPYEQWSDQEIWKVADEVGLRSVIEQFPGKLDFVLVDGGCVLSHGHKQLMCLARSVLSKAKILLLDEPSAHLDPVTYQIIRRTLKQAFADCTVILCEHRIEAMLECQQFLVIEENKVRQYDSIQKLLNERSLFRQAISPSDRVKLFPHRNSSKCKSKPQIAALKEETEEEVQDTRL

Take `Cc1cccc(C)c1-c1cc2nc(n1)NS(=O)(=O)c1cccc(c1)C(=O)N1CCN(C3CCC3(C)C)C[C@H](C1)O2` (single isomer, unassigned) [Compound 9]: the “Ent. A Max Activity (%)” value is recorded as “+++ (+++ is >600%)” and the negative-log EC50 (pEC50) is greater than 6.00.
As for `Cc1cccc(C)c1-c1cc2nc(n1)NS(=O)(=O)c1cccc(c1)C(=O)N1CCN(C3CCC3(C)C)C[C@H](C1)O2` (single isomer, unassigned) [Compound 10], the “Ent. A Max Activity (%)” value is reported as “+++ (+++ is >600%)” and the negative-log EC50 (pEC50) was greater than 6.00.
In the same order, the values of `Cc1cccc(C)c1-c1cc2nc(n1)NS(=O)(=O)c1cccc(c1)C(=O)N1CCN(C3CCC(C)(C)C3)C[C@H](C1)O2` (single isomer, unassigned) [Compound 36] are “+++ (+++ is >600%)” and greater than 6.00.
In the same order, the values of `Cc1cccc(C)c1-c1cc2nc(n1)NS(=O)(=O)c1cccc(c1)C(=O)N1CCN(C3CCC(C)(C)C3)C[C@H](C1)O2` (single isomer, unassigned) [Compound 37] are “+++ (+++ is >600%)” and greater than 6.00.
`Cc1cccc(C)c1-c1cc2nc(n1)NS(=O)(=O)c1cccc(c1)C(=O)N1CCN([C@H]3CC[C@@H](F)CC3)C[C@H](C1)O2` (single isomer, unassigned) [Compound 38]: the “Ent. A Max Activity (%)” value is listed as “+++ (+++ is >600%)” and the pEC50 was greater than 6.00.
For `Cc1cccc(C)c1-c1cc2nc(n1)NS(=O)(=O)c1cccc(c1)C(=O)N1CCN([C@H]3CC[C@@H](F)CC3)C[C@H](C1)O2` (single isomer, unassigned) [Compound 39], the “Ent. A Max Activity (%)” value was “+++ (+++ is >600%)” and the negative logarithm of the EC50 (pEC50) is 5.52 to 6.00.
Turning to `Cc1cccc(C)c1-c1cc2nc(n1)NS(=O)(=O)c1cccc(c1)C(=O)N1CCN(CCC3(C(F)(F)F)CC3)CC(C1)O2` (single isomer, unassigned) [Compound 69, 12-(2,6-Dimethylphenyl)-18-{2-[1-(trifluoromethyl)cyclopropyl]ethyl}-15-oxa-8λ^6-thia-1,9,11,18,22-pentaazatetracyclo[14.4.1.13,7.110,14]tricosa-3(23),4,6,10(22),11,13-hexaene-2,8,8-trione], the “Ent. A Max Activity (%)” value is given as “+++ (+++ is >600%)” and the pEC50 is greater than 6.00.
Take `Cc1cccc(C)c1-c1cc2nc(n1)NS(=O)(=O)c1cccc(c1)C(=O)N1CCN([C@@H](C)C(C)(C)C)C[C@H](C1)O2` (single isomer, unassigned) [Compound 72]: the “Ent. A Max Activity (%)” value is recorded as “+++ (+++ is >600%)” and the pEC50 was greater than 6.00.
Take `Cc1cccc(C)c1-c1cc2nc(n1)NS(=O)(=O)c1cccc(c1)C(=O)N1CCN([C@@H](C)C(C)(C)C)C[C@H](C1)O2` (single isomer, unassigned) [Compound 73]: the “Ent. A Max Activity (%)” value is on record as “+++ (+++ is >600%)” and the pEC50 is greater than 6.00.
With `Cc1cccc(C)c1-c1cc2nc(n1)NS(=O)(=O)c1cccc(c1)C(=O)N1CCN(Cc3ccccc3)C[C@H](O2)[C@@H]1CC(C)C` (single isomer, unassigned) [Compound 87], the “Ent. A Max Activity (%)” value is “++ (++ is 30-60%)” and the pEC50 is greater than 6.00.
As to `Cc1cccc(C)c1-c1cc2nc(n1)NS(=O)(=O)c1cccc(c1)C(=O)N1CCN(Cc3ccccc3)CC(O2)C1CC(C)C` (single isomer, unassigned) [Compound 88, 18-Benzyl-12-(2,6-dimethylphenyl)-21-(2-methylpropyl)-15-oxa-8λ^6-thia-1,9,11,18,22-pentaazatetracyclo[14.4.1.13,7.110,14]tricosa-3(23),4,6,10(22),11,13-hexaene-2,8,8-trione], the “Ent. A Max Activity (%)” value is recorded as “++ (++ is 30-60%)” and the negative logarithm of the EC50 (pEC50) was greater than 6.00.
As for `Cc1cccc(C)c1-c1cc2nc(n1)NS(=O)(=O)c1cccc(c1)C(=O)N1CCN(Cc3ccccc3)CC(O2)C1CC(C)C` (single isomer, unassigned) [Compound 89, 18-benzyl-12-(2,6-dimethylphenyl)-21-(2-methylpropyl)-15-oxa-8λ^6-thia-1,9,11,18,22-pentaazatetracyclo[14.4.1.13,7.110,14]tricosa-3(23),4,6,10(22),11,13-hexaene-2,8,8-trione], the “Ent. A Max Activity (%)” value is reported as “+++ (+++ is >600%)” and the pEC50 was greater than 6.00.
The corresponding values for `Cc1cccc(C)c1-c1cc2nc(n1)NS(=O)(=O)c1cccc(c1)C(=O)N1CCN(Cc3ccccc3)CC(O2)C1CC(C)C` (single isomer, unassigned) [Compound 90, 18-Benzyl-12-(2,6-dimethylphenyl)-21-(2-methylpropyl)-15-oxa-8λ^6-thia-1,9,11,18,22-pentaazatetracyclo[14.4.1.13,7.110,14]tricosa-3(23),4,6,10(22),11,13-hexaene-2,8,8-trione] are “+++ (+++ is >600%)” and greater than 6.00.
On to `Cc1cccc(C)c1-c1cc2nc(n1)NS(=O)(=O)c1cccc(c1)C(=O)N1CCNCC(O2)C1CC(C)C` (single isomer, unassigned) [Compound 91, 12-(2,6-Dimethylphenyl)-21-(2-methylpropyl)-15-oxa-8λ^6-thia-1,9,11,18,22-pentaazatetracyclo[14.4.1.13,7.110,14]tricosa-3(23),4,6,10(22),11,13-hexaene-2,8,8-trione], for which the “Ent. A Max Activity (%)” value is “+++ (+++ is >600%)” and the pEC50 is 5.52 to 6.00.
Take `Cc1cccc(C)c1-c1cc2nc(n1)NS(=O)(=O)c1cccc(c1)C(=O)N1CCN(CCC(C)(C)C)CC(O2)C1CC(C)C` (single isomer, unassigned) [Compound 92, 18-(3,3-Dimethylbutyl)-12-(2,6-dimethylphenyl)-21-(2-methylpropyl)-15-oxa-8λ^6-thia-1,9,11,18,22-pentaazatetracyclo[14.4.1.13,7.110,14]tricosa-3(23),4,6,10(22),11,13-hexaene-2,8,8-trione]: the “Ent. A Max Activity (%)” value is on record as “+++ (+++ is >600%)” and the pEC50 was greater than 6.00.
For the molecule `Cc1cccc(C)c1-c1cc2nc(n1)NS(=O)(=O)c1cccc(c1)C(=O)N1CCN(Cc3ccccc3)CC(O2)C1CC(C)C` (single isomer, unassigned) [Compound 94, 18-Benzyl-12-(2,6-dimethylphenyl)-21-(2-methylpropyl)-15-oxa-8λ^6-thia-1,9,11,18,22-pentaazatetracyclo[14.4.1.13,7.110,14]tricosa-3(23),4,6,10(22),11,13-hexaene-2,8,8-trione], the “Ent. A Max Activity (%)” value is listed as “+++ (+++ is >600%)” and the negative logarithm of the EC50 (pEC50) was greater than 6.00.
Take `Cc1cccc(C)c1-c1cc2nc(n1)NS(=O)(=O)c1cccc(c1)C(=O)N1CCN(C(=O)OCc3ccccc3)C[C@H](O2)[C@H]1C` (single isomer, unassigned) [Compound 112]: the “Ent. A Max Activity (%)” value is recorded as “+++ (+++ is >600%)” and the pEC50 is greater than 6.00.
Consider `Cc1cccc(C)c1-c1cc2nc(n1)NS(=O)(=O)c1cccc(c1)C(=O)N1CCN(C(=O)OCc3ccccc3)C[C@@H](O2)[C@H]1C` (single isomer, unassigned) [Compound 113], for which the “Ent. A Max Activity (%)” value is given as “+ (+ is <30%)” and the pEC50 was 4.52 to 5.52.
